Data on 96 molecules can be found in ChEMBL document CHEMBL3507680, “University of Dundee, Gates Library screen for HepG2 cell viability”.

This data set is described as follows: Human HepG2 cell viability assay in 384 well format. It is filed as toxicity, cell-based. Details: dose 125 nL, time 70.5 hour; cytotoxicity at 70.5 h: concentration not given beside the values. The following applies: HepG2 cells, read-out: Inhibition.
On to `COCCC(=O)N1CCC2(COCc3cnc(-c4ccccc4)nc32)C1` (stereo unspecified), for which the cytotoxicity at 70.5 h was 2.54%.
As for `CCS(=O)(=O)N1C[C@H]2C[C@H](C(=O)N(C)C)[C@@H](C1)O2`, the cytotoxicity at 70.5 h was -19.2%.
In the case of `CN(C)[C@@H]1CCN(C(=O)c2ccsc2)[C@H]1Cc1cnn(C)c1`, the cytotoxicity at 70.5 h was -14.4%.
Turning to `COc1ncccc1CN1CCn2c(Cn3cncn3)cnc2C1`, the cytotoxicity at 70.5 h came out at 20.3%.
For `Cc1cc(C(=O)N2CCC(n3nc(C)cc3C)C2)c2ccc(F)cc2n1` (stereo unspecified), the cytotoxicity at 70.5 h is -9.21%.
Take `Cc1ccc(F)c(C(=O)N2C[C@@H](C(=O)O)[C@H](c3ccccc3)C2)c1Cl`: the cytotoxicity at 70.5 h is 1.54%.
`COCC[C@]1(O)CCN(Cc2nc(C(C)C)cs2)C[C@H]1C`: the cytotoxicity at 70.5 h was -6.41%.
Take `COCCN1CC2(CCC1=O)CCN(Cc1nnc(C)o1)CC2`: the cytotoxicity at 70.5 h was -5.52%.
On to `Cc1ncsc1C(=O)NCc1cccnc1N(C)CCc1ccccn1`, for which the cytotoxicity at 70.5 h was -5.9%.
On to `O=C1[C@H]2CC[C@H](CN(c3ncnc4ccsc34)C2)N1CC1CC1`, for which the cytotoxicity at 70.5 h was -11%.
`Cc1nc(N(C)C)nc(-c2cccc(-c3ccn(CCCO)n3)c2)c1C`: the cytotoxicity at 70.5 h is -7.13%.
As for `CN1[C@H]2CC[C@@H]1CN(C(=O)CCc1csc(N)n1)CC2`, the cytotoxicity at 70.5 h was -11.5%.
The same measure for `CC(C)C1CN(Cc2nccn2C)CCC(=O)N1CC1CC1` (stereo unspecified): -2.87%; for `CCCn1c(C)c(CC(=O)N(C)CCO)c2c1CC(C)(C)CC2=O`: 26.2%; for `Cc1ccc(S(=O)(=O)NCC2CNCCOC2)cc1Cl` (stereo unspecified): -2.6%.
On to `Cc1ccc2nc(C)c(C)c(C(=O)N3CCC4(CCO4)CC3)c2c1`, for which the cytotoxicity at 70.5 h was -5.61%.
As to `CCN(Cc1cnn(C)c1)C[C@H]1CC[C@@H](Cc2ccc(C#N)cc2)O1`, the cytotoxicity at 70.5 h was -17.4%.
On to `C=C(C)CNC(=O)C1CCC(=O)N(C2CCCC2)C1` (stereo unspecified), for which the cytotoxicity at 70.5 h was -2.49%.
On to `Cc1nc(CN2CCC3(CCCO3)CC2)c2ccccn12`, for which the cytotoxicity at 70.5 h came out at 14.9%.
The same measure for `CN(Cc1nc(COc2ccccc2)no1)CC1Cc2ccccc2O1` (stereo unspecified): -3.44%; for `COC(C)(C)C(=O)N[C@H]1CN(c2ncccc2C(N)=O)C[C@@H]1C(C)C`: 0.335%.
With `Cc1nc(C(C)NCc2cc(O)c3cccc(F)c3n2)cs1` (stereo unspecified), the cytotoxicity at 70.5 h was -6.76%.
For `CCc1nnc(NC(=O)CCN2CC=C(c3cnn(C)c3)CC2)s1` the value was -7.5%; for `Cc1nn2c(NCC(N)=O)cc(-c3ccccc3)nc2c1C`, 15.2%.
With `CCc1cnc(NCc2nc(COC)no2)nc1`, the cytotoxicity at 70.5 h is -11.1%.
On to `Cc1cc(C(=O)NC2CCCCNC2=O)c(=O)[nH]c1C` (stereo unspecified), for which the cytotoxicity at 70.5 h was -6.38%.
For `CCOCCC(=O)Nc1cc(C(N)=O)ccc1N1CCCC(C)C1` (stereo unspecified) the value was -2.01%.
For the molecule `CC(C)[C@@H]1CN(Cc2ccsc2)C[C@H]1NS(=O)(=O)N(C)C`, the cytotoxicity at 70.5 h amounted to 1.27%.
As for `CN(Cc1ccc2nsnc2c1)CC1(O)CCNC1` (stereo unspecified), the cytotoxicity at 70.5 h was -5.93%.
For `CCN1CCC(CNS(=O)(=O)N2CCc3ccccc3C2)C1` (stereo unspecified) the value was 6.73%; for `CC(C)c1noc(CN(Cc2cccnc2)C2CN3CCC2CC3)n1` (stereo unspecified), 52.5%.
Take `Cc1ccc2cc(C3(O)CCN(C(=O)CSC(C)C)CC3)ccc2n1`: the cytotoxicity at 70.5 h was -6%.
On to `O=C(O)C1(n2cccn2)CCN(Cc2nc(-c3ccccc3)no2)CC1`, for which the cytotoxicity at 70.5 h was -9.66%.
Regarding `COc1cccc(CC(=O)N2CCc3ncnc(NCCO)c3CC2)c1`, the cytotoxicity at 70.5 h was -9.99%.
The same measure for `CNS(=O)(=O)CCn1cc(-c2ccc(NC(C)=O)cc2)nn1`: 3.8%; for `O=C(N[C@H]1CN(C2CCOCC2)C[C@@H]1C1CC1)c1cc(O)no1`: -7.33%.
On to `COc1nccc(N2CC[C@H](N3CCOCC3)[C@H](CCCO)C2)c1C#N`, for which the cytotoxicity at 70.5 h is -7.48%.
In the case of `COCCN1CC2(CCCN(C(=O)CCCc3cccs3)C2)CCC1=O` (stereo unspecified), the cytotoxicity at 70.5 h worked out at 9.49%.
Regarding `Cc1ccccc1-n1ncc(C(C)N)c1C` (stereo unspecified), the cytotoxicity at 70.5 h worked out at 26.7%.
`CC(=O)Nc1ccc2nc(-c3nccn3CCCN(C)C)ccc2c1`: the cytotoxicity at 70.5 h is -8.35%.
As for `OCC1CCN(C[C@@H]2CN(C3Cc4ccccc4C3)C[C@@H]2CO)CC1`, the cytotoxicity at 70.5 h was -4.9%.
Regarding `Cc1ccc(OCC(=O)N2CCOCC(O)(CN3CCCC3)C2)cc1C` (stereo unspecified), the cytotoxicity at 70.5 h amounted to 27.8%.
Take `CCc1cnc(C)nc1N1CCN(Cc2ccc(-c3cc[nH]n3)o2)CC1`: the cytotoxicity at 70.5 h came to 9.84%.
As for `Cc1c(-c2nnc(SCC(=O)O)n2C(C)c2ccccc2)cnn1C` (stereo unspecified), the cytotoxicity at 70.5 h was -12.3%.
In the case of `CCc1cc(NCCC(F)(F)F)nc(N2CCOCC2)n1`, the cytotoxicity at 70.5 h was -7.87%.
`C=C(C)COc1cccc(C(=O)N2CCC(O)(c3ccccc3)CC2)c1`: the cytotoxicity at 70.5 h stood at 7.64%.
As for `Cc1ccccc1N1CC(C)N(Cc2ccc(C)c(F)c2F)CC1=O` (stereo unspecified), the cytotoxicity at 70.5 h amounted to 5.81%.
For the molecule `CC(C)(C(=O)NCC1CCN(Cc2ccccn2)C1)c1ccccc1` (stereo unspecified), the cytotoxicity at 70.5 h came out at 18.1%.
Turning to `CCc1ccc(C(=O)N2CC[C@](C)(O)C(C)(C)C2)[nH]1`, the cytotoxicity at 70.5 h was -3.24%.
`O=C(C1CCCO1)N1CCC(Cn2cc(C3CCCC3)nn2)CC1` (stereo unspecified): the cytotoxicity at 70.5 h came to 2.36%.
With `O=C(CCn1cncn1)N1CCCC(CO)(CCCc2ccccc2)C1` (stereo unspecified), the cytotoxicity at 70.5 h is 15.8%.
On to `CC(=O)N[C@@H]1CN(Cc2ccccc2-n2nc(C)cc2C)C[C@H]1C(C)C`, for which the cytotoxicity at 70.5 h was -7.15%.
For `Cc1ccccc1CC(=O)N1CCCn2cncc2C1`, the cytotoxicity at 70.5 h was -9.13%.
Turning to `Cc1cc(NC2CCCN(Cc3ccc(F)cc3)C2)n2nc(C)cc2n1` (stereo unspecified), the cytotoxicity at 70.5 h was -0.0493%.
For the molecule `Cc1[nH]c2ccc(Cl)cc2c1CCNc1ncnc2c1CCNC2`, the cytotoxicity at 70.5 h was -6.2%.
With `CCCN1CCC=C(C2c3nc[nH]c3CCN2C(=O)c2ccco2)C1` (stereo unspecified), the cytotoxicity at 70.5 h came to 22.4%.
The same measure for `O=C(Cn1[nH]c2ccccc2c1=O)N1CCCC(CC2CC2)(C(=O)O)C1` (stereo unspecified): -7.99%.
Regarding `CNC(=O)c1ccnc(CC2COc3c(cccc3OC)C2)c1` (stereo unspecified), the cytotoxicity at 70.5 h was -25.4%.
Turning to `CCNc1ncc(CN(Cc2ccccc2)CC(C)CO)cn1` (stereo unspecified), the cytotoxicity at 70.5 h is -4.08%.
With `CC(C)Nc1cc(N2CCN(Cc3ccccc3)C(CCO)C2)ncn1` (stereo unspecified), the cytotoxicity at 70.5 h was -1.73%.
Take `Cc1nc(O)cc(C2CCN(C(=O)C(C)Cn3nc(C)nc3C)CC2)n1` (stereo unspecified): the cytotoxicity at 70.5 h was -4.5%.
Consider `C[C@@H](O)[C@H](NC(=O)c1csc2nc(-c3ccccc3F)cn12)C(N)=O`, for which the cytotoxicity at 70.5 h was 2.4%.
Regarding `CCC(CO)N(Cc1ccccn1)Cc1ccc(-c2ccn[nH]2)s1` (stereo unspecified), the cytotoxicity at 70.5 h was -14%.
`CNC(=O)C1CCN(c2ncc3c(n2)CCN3c2ccccc2)C1` (stereo unspecified): the cytotoxicity at 70.5 h was -4.33%.
For `Cc1nc2c(c(N3C[C@@H](C)[C@@](C)(O)C3)n1)CCC2`, the cytotoxicity at 70.5 h was determined as 22.5%.
In the case of `CC(C)[C@@H]1CN(c2ccc(F)cn2)C[C@H]1NS(C)(=O)=O`, the cytotoxicity at 70.5 h is 12.1%.
For `CN1CCC(N(C)C[C@H]2CC[C@@H](Cc3cccc(O)c3)O2)CC1` the value was 43.7%; for `COCCC1(C(=O)O)CCCN(CCOCc2ccccc2)C1` (stereo unspecified), -3.38%; for `Cc1cc2c(N3CCCC(OCc4cccnc4)C3)ncnc2s1` (stereo unspecified), -9.75%.
With `Nc1nc(NCCO)cc(N2CCc3c([nH]c4ccccc34)C2)n1`, the cytotoxicity at 70.5 h is -7.97%.
Consider `CC(C)c1cc(NCC(O)c2ccncc2)n2nccc2n1` (stereo unspecified), for which the cytotoxicity at 70.5 h is 14.4%.
On to `Cc1cc(C)n(Cc2cc(C(=O)N3CCCC3c3ccccn3)n[nH]2)n1` (stereo unspecified), for which the cytotoxicity at 70.5 h was -17.2%.
Turning to `Cc1ccc(OCC(O)CNC(=O)C2(c3ccc(F)cc3)CC2)cc1` (stereo unspecified), the cytotoxicity at 70.5 h was -7.12%.
`Cc1c(C(=O)N2CCN(C)[C@@H]3CS(=O)(=O)C[C@@H]32)[nH]c2ccc(F)cc12`: the cytotoxicity at 70.5 h was -1.69%.
For the molecule `CCCN1CCCC2(CCN(Cc3cncn3C3CCCC3)C2)C1=O` (stereo unspecified), the cytotoxicity at 70.5 h was -8.03%.
Turning to `Cc1nc2c(c(N3CCCC(OCc4ccccn4)C3)n1)CCNCC2` (stereo unspecified), the cytotoxicity at 70.5 h was -14.9%.
Take `CCSCCC(=O)N1CCc2[nH]nc(COc3ccccc3)c2C1`: the cytotoxicity at 70.5 h worked out at 23.8%.
On to `CCn1cc(CN(C)C(=O)C(c2ccccc2C)N(C)C)cn1` (stereo unspecified), for which the cytotoxicity at 70.5 h is -1.5%.
For the molecule `COCC(=O)N1CCC(Oc2cccc(C)c2)CC1`, the cytotoxicity at 70.5 h was -16%.
For the molecule `CN(CCCO)c1nc(-c2ccc(C(N)=O)cc2)nc2c1CCNC2`, the cytotoxicity at 70.5 h was -13.3%.
With `CCc1csc(CNc2cc(C)nc(-c3cccnc3)n2)n1`, the cytotoxicity at 70.5 h is -7.79%.
For `O=C(CCn1ccccc1=O)N1CCN(Cc2cccc(Cl)c2)CC1`, the cytotoxicity at 70.5 h was -12.6%.
The same measure for `O=C(NC1CCCCC1)N1CCC(n2cc(-c3ccccn3)nn2)CC1`: -6.7%.
The same measure for `CC1=CCN(S(=O)(=O)c2cccc(C(=O)N3CCCN(C)CC3)c2)CC1`: -10.6%.
For `CCn1c(N)nc2cc(C(=O)NCCc3nnc(C)s3)cnc21` the value was -24.8%.
On to `CC(=O)N1CCC(N2CCOC(CC3CCCCC3)C2)CC1` (stereo unspecified), for which the cytotoxicity at 70.5 h was -4.68%.
`CN(C)c1nc2c(c(N3CCc4ccccc4C3)n1)CCNC2`: the cytotoxicity at 70.5 h stood at 0.802%.
`C=C(C)COc1ccccc1CNCCc1c[nH]cn1`: the cytotoxicity at 70.5 h is 2.66%.
On to `O=C(NCCN1CCc2ccccc21)c1cc(-c2ccc(O)cc2)n[nH]1`, for which the cytotoxicity at 70.5 h came to 46.5%.
In the case of `O=C(NCc1cncc2c1CCN(Cc1cccs1)C2)C1CC1`, the cytotoxicity at 70.5 h was -13.8%.
The same measure for `CN1CCCc2c1nc1c(c2N)CCCC1`: 23%.
With `CN(C)CC(=O)N1CCC2(CC1)CN(c1ccsc1)C(=O)CO2`, the cytotoxicity at 70.5 h worked out at 21%.
On to `COCCN1C(=O)C[C@H]2[C@H]1CCN2Cc1ccc(OC)cc1`, for which the cytotoxicity at 70.5 h was -7.39%.
As to `N#Cc1cccc(CN2CC[C@@H]3[C@@H]2CC(=O)N3Cc2cccnc2)c1`, the cytotoxicity at 70.5 h is -18.9%.
Consider `c1ccc(CN2CC[C@@H]3O[C@H](COCc4ccncc4)CC[C@@H]32)nc1`, for which the cytotoxicity at 70.5 h was -13%.
For `c1ccc(CN2C[C@@H]3OCCN(c4ncccn4)[C@@H]3C2)nc1`, the cytotoxicity at 70.5 h is -12.9%.
